From patent US20250123297A1, “Supermere Nanoparticles and Methods of Isolation and Use Thereof” (Vanderbilt University, priority 2021, published 2025)

Tests used:
MDA-MB-231 cells = assay: Inhibition of cellular supermere uptake by uptake inhibitors; type: cell-based, human; details: 30 min pre-incubation with inhibitor, labeled supermeres 24 h, 100 nM bafilomycin A
Experimental: (§1) For inhibitor treatment before supermere uptake, MDA-MB-231 cells were seeded at 20,000 cells per well or Hela cells at 25,000 cells per well on a 35-mm dish (P35G-0.170-14-C, MatTek Corporation) in DMEM culture media. Twenty-four hours later, cells were pre-incubated with the inhibitors in serum free DMEM media for 30 min. The following inhibitors were used: 100 nM bafilomycin A (Sigma, SML1661-. 1ML), 20 μM dynasore (Sigma, D7693-5 MG), 25 μM CK666 (Sigma, SML0006), 5 μM cytochalasin D (Sigma, C2618-200 ul). The Alexa Fluor 647-labeled supermeres (40 μg/ml) were added to the cells for 24 h in the presence of indicated inhibitors. […] Brightfield (30 ms exposure time) and fluorescence (640 Far Red, 10% laser power, 100 ms exposure time) images were taken of 10 or more fields of view, each with several cells per field. Three z-slices 1 μm apart were taken of each fluorescent field and the brightest slice was analyzed.
(§2) Brightfield images were used to identify cell boundaries and an ROI was drawn manually around each cell in each field of view. These region of interests (ROIs) were then opened on the fluorescent image and the mean fluorescence intensity of each ROI (cell) was measured. For each field of view, a background ROI was drawn in a region with no cells, and this background value was subtracted from each cell fluorescence mean in the field of view. […]

Hela cells = assay: as above; type: cell-based; details: 30 min pre-incubation with inhibitor, labeled supermeres 24 h, 100 nM bafilomycin A
Experimental: as §1, §2

CO/C1=C\C(C)=C\[C@@H](C)[C@@H](O)[C@@H](C)C/C(C)=C/C=C/[C@H](OC)[C@@H]([C@@H](C)[C@@H](O)[C@H](C)[C@@]2(O)C[C@@H](O)[C@H](C)[C@@H](C(C)C)O2)OC1=O [bafilomycin A]
inhibition of supermere internalization (MDA-MB-231 cells): greatest inhibition of supermere internalization | inhibition of supermere internalization (Hela cells): greatest inhibition of supermere internalization
